Measured values reported in patent publication EP3360553B1, “MOLECULES AND PHARMACEUTICAL COMPOSITIONS, IN PARTICULAR FOR TREATING A GENETIC BLOOD DISORDER” (Université de La Réunion, priority 2017, dated 2018).

How the values were obtained:
[1] = tested on: laminin 521; experiment: Red blood cell adhesion to laminin 521 under flow conditions; format: cell-based; conditions: RBCs from sickle cell disease patients incubated with molecule at 0.1 mM for 30 min at room temperature, recombinant human laminin 521, 3 blood samples
Protocol: (§1) In the figures: • Figure 1: Adhesion of RBCs from sickle cell disease patients (N = 3) to laminin 521. Results are presented as a percentage of adhesion, 100% of adhesion being the adhesion level observed for RBCs incubated with buffer supplemented with DMSO alone. • Figure 2: Adhesion of RBCs from sickle cell disease patients to laminin 521 in the presence of increasing concentrations of Molecule 2 and Molecule 3. Results are presented as a percentage of adhesion, 100% of adhesion being the adhesion level observed for RBCs incubated without the molecules.
Red blood cell adhesion to laminin 521 was measured under flow conditions using Vena8 Endothelial+™ biochips (internal channel dimensions: length 20 mm, width 0.8 mm, height 0.12 mm) and ExiGo™ Nanopumps (Cellix Ltd, Dublin, Ireland). Three different solutions were prepared with either Molecule 1, Molecule 2 or Molecule 3 (0.1 mM) by solubilizing Molecule 1, 2 or 3 using DMSO. Recombinant human laminin 521 (BioLamina) at 5 ng/µl was immobilized on the internal surface of the biochips at 4°C overnight. RBCs from sickle cell disease patients were suspended at 5x10^7 cells/ml in Hanks balanced salt solution, without calcium chloride and magnesium sulfate (Sigma-Aldrich) supplemented with 0.4% BSA, and incubated with the solution comprising either Molecule 1, Molecule 2 or Molecule 3 at 0.1 mM or DMSO, for 30 min at room temperature (20°C) and perfused through the biochip channels for 10 min at a shear stress of 0.5 dyn/cm^2 followed by a washout at the same shear stress with the buffer alone for 30 min. Five minutes washouts with the Hanks/0.4% BSA buffer were performed at 1, 2, 3, 4 and 5 dyn/cm^2. After each wash, adherent RBCs were counted in 7 representative areas along the centerline of each channel using the AxioObserver Z1 microscope and ZEN analysis software (Carl Zeiss, Le Pecq, France) and the mean number of adherent RBCs was determined for each condition and each washout step (Figure 1). Images of the same 7 areas were obtained throughout each experiment. […]

[2] = tested on: RBCs; experiment: Control of hemolysis (RBC concentration by CASY Cell Counter and Analyzer); format: cell-based; conditions: 0.1 mM, 30 min incubation at room temperature; for RBCs/ml (x10^6): Hanks/0.4% BSA buffer, RBCs suspended at 6x10^6 cells/ml; for decrease of RBC concentration compared to vehicle (DMSO) alone: result in words
Protocol: (§2) At the end of the 30 min of incubation with the molecules, the number of RBC for the control of hemolysis was measure by using CASY® Cell Counter and Analyzer.
(§3) For hemolysis assays, RBCs were suspended at 6x10^6 cells/ml in the Hanks/0.4% BSA buffer and the concentration measured accurately using the CASY® Cell Counter and Analyzer. RBCs were then incubated with the solution comprising either Molecule 1, Molecule 2 or Molecule 3 at 0.1 mM or DMSO, for 30 min at room temperature. After this incubation time cell concentration was measured again using CASY® Cell Counter and Analyzer (Table 1). If hemolysis occurs during this incubation time it will be reflected by a decrease in the RBC concentration.

[3] = tested on: laminin 521; experiment: Dose effect in the RBC adhesion assay to laminin 521; format: cell-based, human; conditions: 50, 100 and 200 µM; RBCs from sickle cell disease patients; same conditions as Example 1
Protocol: as §1
Red blood cell adhesion to laminin 521 was measured under flow conditions using Vena8 Endothelial+™ biochips (internal channel dimensions: length 20 mm, width 0.8 mm, height 0.12 mm) and ExiGo™ Nanopumps (Cellix Ltd, Dublin, Ireland). Three different solutions were prepared with either Molecule 1, Molecule 2 or Molecule 3 (0.1 mM) by solubilizing Molecule 1, 2 or 3 using DMSO. Recombinant human laminin 521 (BioLamina) at 5 ng/µl was immobilized on the internal surface of the biochips at 4°C overnight. […] After each wash, adherent RBCs were counted in 7 representative areas along the centerline of each channel using the AxioObserver Z1 microscope and ZEN analysis software (Carl Zeiss, Le Pecq, France) and the mean number of adherent RBCs was determined for each condition and each washout step (Figure 1). […]

[4] = Control of hemolysis (RBC concentration by CASY Cell Counter and Analyzer); format: cell-based; conditions: red blood cells; 0.1 mM, 30 min incubation at room temperature; compared to vehicle (DMSO); read-out: decrease of the RBC concentration
Protocol: as §2, §3

O=S(=O)(O)CCCn1c(=NN=Cc2c(O)ccc3ccccc23)sc2ccccc21 [Molecule 3]
RBC adhesion to laminin [1]: inhibited
RBCs/ml (x10^6) [2]: 6.02 x10^6 RBCs/ml
decrease of RBC concentration compared to vehicle (DMSO) alone [2]: no decrease
inhibition of RBC adhesion to laminin with increasing concentrations [3]: increasing inhibition

Cc1c(CC(=O)NC(C(=O)O)c2ccccc2)c(=O)oc2c(C)c3oc4c(c3cc12)CCCC4 (centres unmarked) [Molecule 2]
RBC adhesion to laminin [1]: inhibited
hemolysis at 0.5 h, 100 µM [4]: < 10%
RBCs/ml (x10^6) [2]: 5.55 x10^6 RBCs/ml
inhibition of RBC adhesion to laminin with increasing concentrations [3]: increasing inhibition

CCC(=O)N1CCc2ccc(OCc3nc(C(=O)NCc4ccccc4)co3)cc2C1c1ccc(C)cc1 (centres unmarked) [Molecule 1]
RBC adhesion to laminin [1]: not
RBCs/ml (x10^6) [2]: 6.04 x10^6 RBCs/ml
decrease of RBC concentration compared to vehicle (DMSO) alone [2]: no decrease
